Square brackets hold non-standard residues; d marks the D form. Peptide text beside a SMILES is read from it.
How the values were obtained:
TEM-1 β-lactamase = TEM-1 β-lactamase (Escherichia coli, UniProt P62593); assay: β-lactamase colorimetry assay (TEM-1 inhibition); format: biochemical, E. coli; details: for TEM-1 inhibition compared with T61-25: β-lactamase colorimetry assay
Excerpt: The bacteria can express a β-lactamase and the antibacterial peptide can inhibit the ability of the β-lactamase to cleave a β-lactam ring. This can be measured using a beta lactamase inhibition assay like a commercially available beta lactamase inhibitor screening kit. These kits test the ability of a beta lactamase to hydrolyze a chromogenic substrate, which results in the generation of a colored product. The amount of color produced is directly proportional to the amount of beta-lactamase activity. In the presence of beta lactamase inhibitors, such as clavulanic acid or the antibacterial peptides described herein, the rate of substrate hydrolysis will decrease resulting in a decrease in the production of colored analyte. The non-peptide β-lactamase inhibitor can include clavulanate, clavulanic acid, sulbactam, taobactam, avibactam, relebacam, RG6080, or RPX7009.

SAP231 = assay: Enhancement of cefazolin killing of MRSA; format: cell-based, Staphylococcus aureus; details: at the test concentrations, 0 μg/ml peptide
Protocol: FIGS. 4A and 4B are graphs showing RI-D-BP100-T61-25 combined with cefazolin and tested against both SAP231 (FIG. 4A) and NRS384 strain (FIG. 4B).
Additionally, the peptide's potency at enhancing cefazolin killing of MRSA was also tested. Cefazolin is a cephalosporin, which are improved β-lactams developed to overcome some of the early penicillin resistance. Cefazolin is a first line therapy for the treatment of Methicillin-susceptible Staphylococcus aureus (MSSA) infections. […] RI-D-BP100-T61-25 was also combined with cefazolin and tested against both SAP231 (FIG. 4A) and NRS384 strain (FIG. 4B).

PBP2a = PBP2a (Staphylococcus aureus, UniProt P07944); assay: PBP2a colorimetry assay; format: biochemical
Excerpt: Methicillin-resistant Staphylococcus aureus (MRSA) contains the mecA gene in a mobile genetic element found in all MRSA strains, which encodes penicillin-binding protein 2a (PBP2a). PBPs are membrane-bound enzymes that catalyze the transpeptidation reaction that is necessary for cross-linkage of peptidoglycan chains for cell wall formation and targeted by β-lactam. Because of the low affinity of PBP2a for all β-lactam antibiotics, it can substitute for other PBPs under high concentrations of f-lactam antibiotics. As a result. MRSA strains are highly resistant to β-lactam antibiotics.

[1] = 25% human serum, 0 hours and 24 hours (FIG. 1)

Chain of TEM-1 β-lactamase (P62593 24-286 limits assumed): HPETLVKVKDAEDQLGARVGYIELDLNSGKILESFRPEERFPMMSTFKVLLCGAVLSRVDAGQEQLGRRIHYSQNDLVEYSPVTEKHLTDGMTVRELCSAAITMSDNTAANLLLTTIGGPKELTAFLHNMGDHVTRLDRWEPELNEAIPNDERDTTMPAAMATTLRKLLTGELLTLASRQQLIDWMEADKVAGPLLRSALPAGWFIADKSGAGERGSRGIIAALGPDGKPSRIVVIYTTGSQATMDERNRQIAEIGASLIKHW
Chain of PBP2a (P07944 whole entry): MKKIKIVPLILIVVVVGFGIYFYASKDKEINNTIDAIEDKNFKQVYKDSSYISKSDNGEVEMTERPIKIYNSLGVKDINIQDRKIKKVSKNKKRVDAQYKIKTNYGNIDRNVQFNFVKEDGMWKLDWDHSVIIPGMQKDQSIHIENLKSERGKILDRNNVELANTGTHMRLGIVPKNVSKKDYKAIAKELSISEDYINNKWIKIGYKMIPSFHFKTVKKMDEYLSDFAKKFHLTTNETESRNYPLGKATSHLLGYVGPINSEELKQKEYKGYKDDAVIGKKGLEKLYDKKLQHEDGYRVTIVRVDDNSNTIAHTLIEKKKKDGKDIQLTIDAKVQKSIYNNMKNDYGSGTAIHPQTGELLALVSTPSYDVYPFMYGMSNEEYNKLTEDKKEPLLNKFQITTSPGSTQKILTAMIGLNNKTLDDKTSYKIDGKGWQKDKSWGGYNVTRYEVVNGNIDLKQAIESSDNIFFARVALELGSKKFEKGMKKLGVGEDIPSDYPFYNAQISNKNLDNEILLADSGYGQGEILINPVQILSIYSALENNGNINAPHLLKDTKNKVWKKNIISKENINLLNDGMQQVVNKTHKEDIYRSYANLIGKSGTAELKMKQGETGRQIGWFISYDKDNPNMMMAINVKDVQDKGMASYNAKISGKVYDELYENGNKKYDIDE

For `CC(C)C[C@@H](NC(=O)[C@@H](Cc1ccc(O)cc1)NC(=O)[C@H](NC(=O)[C@H](N)CCCCN)[C@H](C)O)C(=O)N[C@H](C)C(=O)N[C@H](CCC(N)=O)C(=O)N[C@H](C)C(=O)N[C@H](C)C(=O)N[C@H](C)C(=O)N[C@@H](C(=O)NCC(=O)O)[C@H](C)O` [D-T61-25], the “TEM-1 inhibition compared with T61-25” value (TEM-1 β-lactamase) was “maintained comparable levels of TEM-1 inhibition as T61-25”.

In the case of `Cc1nnc(SCC2=C(C(=O)O)N3C(=O)[C@@H](NC(=O)Cn4cnnn4)[C@H]3SC2)s1` [cefazolin, Cefazolin], the “inhibition of SAP231 growth by cefazolin alone” value (SAP231) is reported as “partially inhibited”.

With `CC(C)C[C@H](NC(=O)[C@H](Cc1ccc(O)cc1)NC(=O)[C@@H](NC(=O)[C@@H](N)CCCCN)[C@@H](C)O)C(=O)N[C@@H](C)C(=O)N[C@@H](CCC(N)=O)C(=O)N[C@@H](C)C(=O)N[C@@H](C)C(=O)N[C@@H](C)C(=O)N[C@H](C(=O)NCC(=O)O)[C@@H](C)O` [Inhibitor T61-25] the “inhibition of PBP2a activity” value (PBP2a) was “capable of inhibiting PBP2a activity at μM range”.

In the case of `CC(C)C[C@H](NC(=O)[C@H](Cc1ccc(O)cc1)NC(=O)[C@H](NC(=O)[C@@H](N)CCCCN)[C@H](C)O)C(=O)N[C@@H](C)C(=O)N[C@@H](CCC(N)=O)C(=O)N[C@@H](C)C(=O)N[C@@H](C)C(=O)N[C@@H](C)C(=O)N[C@H](C(=O)NCC(=O)O)[C@@H](C)O` [D-T2], the “TEM-1 inhibition compared with T61-25” value (TEM-1 β-lactamase) is reported as “maintained comparable levels of TEM-1 inhibition as T61-25”.

With `CC[C@@H](C)[C@@H](NC(=O)[C@@H](CC(C)C)NC(=O)[C@@H](CCCCN)NC(=O)[C@@H](Cc1ccc(O)cc1)NC(=O)[C@@H](CC(C)C)NC(=O)[C@@H](CCCCN)NC(=O)[C@H](NC(=O)[C@@H](Cc1ccc(O)cc1)NC(=O)[C@@H](CC(C)C)NC(=O)[C@@H](C)NC(=O)[C@@H](CCC(N)=O)NC(=O)[C@@H](C)NC(=O)[C@@H](C)NC(=O)[C@@H](C)NC(=O)[C@H](NC(=O)CN)[C@H](C)O)[C@H](C)O)C(=O)N[C@H](CCCCN)C(=O)N[C@H](CCCCN)C(=O)N[C@H](Cc1ccccc1)C(=O)N[C@H](CC(C)C)C(=O)N[C@H](CCCCN)C(=O)N[C@H](CCCCN)C(=O)O` [RI-D-BP100-T61-25, dGdTdAdAdAdQdAdLdYdTdKdLdYdKdLdIdKdKdFdLdKdK] (H-G[dT][dA][dA][dA][dQ][dA][dL][dY][dT][dK][dL][dY][dK][dL][dI][dK][dK][dF][dL][dK][dK]-OH; N-terminus and C-terminus assumed) the serum stability [1] was “better than the L-peptide BP100-T61-25”.

With `CC(C)C[C@@H](NC(=O)[C@@H](C)NC(=O)[C@@H](CCC(N)=O)NC(=O)[C@@H](C)NC(=O)[C@@H](C)NC(=O)[C@@H](C)NC(=O)[C@H](NC(=O)CN)[C@H](C)O)C(=O)N[C@H](Cc1ccc(O)cc1)C(=O)N[C@@H](C(=O)N[C@H](CCCCN)C(=O)O)[C@H](C)O` [RI-D-T61-25, dGdTdAdAdAdQdAdLdYdTdK] the Ki (TEM-1 β-lactamase) was 880 ± 40 nM and the “TEM-1 inhibition compared with T61-25” value (TEM-1 β-lactamase) was “maintained comparable levels of TEM-1 inhibition as T61-25”.

From patent publication US20260200978A1, “PEPTIDE INHIBITORS OF BETA-LACTAMASE” (priority 2022, published 2026)
